Read-outs that look alike come from different tables or passages of the source.
Test: Single-dose pharmacokinetics in rats (plasma, UHPLC/MS/MS)
Type: in vivo, Sprague Dawley rats
Settings: for MRT last: read-out: MRT0-t; for MRT inf: read-out: MRT0-∞
Description: Sixty healthy adult Sprague Dawley rats (180-220 g, half male and female) were purchased from the Guangdong Medical Laboratory Animal Center (Guangzhou, Guangdong, China). Thirty Beagle dogs (10-14 kg, half male and female) were purchased from the […] Laboratory Animal Science & Technology Co., Ltd. (Gaoyao, Guangdong, China). All animals were housed under humanized conditions with free access to food and water, and acclimated to the living conditions for at least one week prior to experimentation at the Laboratory Animal Center of the School of Life Sciences, Sun Yat-sen University. Environmental conditions were maintained at 20°C-25°C, 55% ± 15% relative humidity, 12-h light/dark cycles, and 12 air changes per hour. Prior to experimentation, the animals were fasted overnight with water available ad libitum. All animals were healthy based on physical examination and laboratory analyses performed before and after the experiments. At the end of the experiments, the dogs were returned to the Laboratory Animal Center of School of Life Sciences, Sun Yat-sen University. […] All blood samples were transferred into heparin-treated centrifuge tubes and centrifuged for 10 min at 4,000 rpm and 4°C. All human urine samples were mixed and transferred (4 ml) into storage tubes. All biological samples were stored at -80°C. […] The optimal volume and activity in unit volume of enzyme solution [0.2 M acetic acid/water solution: 0.2 M ammonium acetate/water solution, 15:35 (v/v)] were determined through a pretest of the enzyme (rat plasma, 10 μl, 10 U μl^-1; dog plasma, 10 μl, 10 U μl^-1; human plasma, 20 μl, 20 U μl^-1; human urine, 10 μl, 10 U μl^-1). After enzyme incubation, 10 μl of IS solution was added to the plasma and urine samples (2 μg ml^-1 quercetin 3-β-D-glucoside for rat and dog plasma; 583 ng ml^-1 naringin-D4 and 160 ng ml^-1 naringenin-D4 for human plasma; and 9,710 ng ml^-1 naringin-D4 and 6,000 ng ml^-1 naringenin-D4 for human urine). To each fecal sample, 9-fold methanol-normal saline (2:1, v/v) was added, mixed (18,000 rpm, 15 min) by vortexing and centrifuged (10 min, 9,000 rpm, 4°C). Next, 10 μl IS solution (971 ng ml^-1 naringin-D4 and 600 ng ml^-1 naringenin-D4) was added to the supernatants of feces (200 μl) without enzyme incubation. […] The solid material was dissolved with acetonitrile-water (1:1, v/v) and injected into the ultra high-performance liquid chromatography coupled with triple quadrupole mass spectrometry (UHPLC/MS/MS) system as described below. The analysis of nonclinical and clinical samples was performed with a UHPLC/MS/MS system that consisted of a Shimadzu Nexera X2 ultra high-performance liquid chromatography (UHPLC) (Shimadzu Corp., Kyoto, Japan) coupled with an AB Sciex API4000 triple-quadrupole mass spectrometry (MS/MS) system (AB Sciex, Foster City, CA, USA) equipped with an electrospray ionization source and controlled by Analyst (v. 1.6.2) software. […] The injection volume was 10 μl with the flow rate of 0.3 ml min^-1 for plasma, and 0.4 ml min^-1 for urine and feces. The compounds were detected by multiple reaction monitoring in the negative ion electrospray mode. The electrospray source conditions were as follows: ion source gas1 30 psi, ion source gas2 60 psi, curtain gas 20 psi, collisionally activated dissociation (CAD) gas 8 psi, temperature 500°C, and ion spray voltage -4,500 V. Zero air was used for ion source gas1 and ion source gas2 and nitrogen for curtain gas and CAD gas. […] All pharmacokinetic and excretion parameters were expressed as mean ± standard deviation (SD). All mean and SD values were reported to three significant figures. The pharmacokinetic parameters were calculated using the Phoenix WinNonlin software (Version 6.4, Pharsight Corp., Cary, NC, USA) and compared using the Student's t-test (p < 0.05) in SPSS 18.0 (SPSS Inc., Chicago, IL, USA). […]

[1] = both sexes, Sprague Dawley, rat, plasma, iv, 42 mg/kg
[2] = both sexes, Sprague Dawley, rat, plasma, iv, 42 mg/kg, read-out: Cmax
[3] = both sexes, Sprague Dawley, rat, plasma, iv, 42 mg/kg, read-out: Vd
[4] = both sexes, Sprague Dawley, rat, plasma, po, 10.5 mg/kg
[5] = both sexes, Sprague Dawley, rat, plasma, po, 21 mg/kg
[6] = both sexes, Sprague Dawley, rat, plasma, po, 42 mg/kg
[7] = both sexes, Sprague Dawley, rat, plasma, po, 168 mg/kg
[8] = female, Sprague Dawley, rat, plasma, iv, 42 mg/kg
[9] = female, Sprague Dawley, rat, plasma, iv, 42 mg/kg, read-out: Cmax
[10] = female, Sprague Dawley, rat, plasma, po, 10.5 mg/kg
[11] = female, Sprague Dawley, rat, plasma, po, 21 mg/kg
[12] = female, Sprague Dawley, rat, plasma, po, 42 mg/kg
[13] = female, Sprague Dawley, rat, plasma, po, 168 mg/kg
[14] = male, Sprague Dawley, rat, plasma, iv, 42 mg/kg
[15] = male, Sprague Dawley, rat, plasma, iv, 42 mg/kg, read-out: Cmax
[16] = male, Sprague Dawley, rat, plasma, po, 10.5 mg/kg
[17] = male, Sprague Dawley, rat, plasma, po, 21 mg/kg
[18] = male, Sprague Dawley, rat, plasma, po, 42 mg/kg
[19] = male, Sprague Dawley, rat, plasma, po, 168 mg/kg
[20] = naringin 168 mg kg^-1 p.o. single dose, rat
[21] = naringenin after naringin 168 mg kg^-1 p.o. single dose, rat

C[C@@H]1O[C@@H](O[C@H]2[C@H](Oc3cc(O)c4c(c3)O[C@H](c3ccc(O)cc3)CC4=O)O[C@H](CO)[C@@H](O)[C@@H]2O)[C@H](O)[C@H](O)[C@H]1O [naringin, Naringin]
AUC(0-inf) [1]: 18.1 ± 7.55 µg·h/mL | AUC(0-t) [1]: 18.1 ± 7.58 µg·h/mL | Tmax [1]: 0.03 h | clearance [1]: 2.9 L/h/kg | half-life [1]: 1.62 ± 1.18 h | Cmax [2]: 88.5 ± 51 µg/mL | MRT last [1]: 0.496 ± 0.382 h | MRT inf [1]: 0.57 ± 0.476 h | Vd [3]: 8.29 ± 10 L/kg | half-life (both sexes, Sprague Dawley, rat, plasma, po): < 1 h | AUC(0-inf) [4]: 0.0357 ± 0.0293 µg·h/mL | AUC(0-t) [4]: 0.0327 ± 0.0277 µg·h/mL | Tmax [4]: 1.5 ± 2.35 h | half-life [4]: 0.328 ± 0.275 h | Cmax (both sexes, Sprague Dawley, rat, plasma, po, 10.5 mg/kg, read-out: Cmax): 0.0317 ± 0.0132 µg/mL | MRT last [4]: 0.741 ± 0.423 h | MRT inf [4]: 1.22 ± 0.297 h | AUC(0-inf) [5]: 0.0384 ± 0.0214 µg·h/mL | AUC(0-t) [5]: 0.0342 ± 0.0203 µg·h/mL | Tmax [5]: 1.53 ± 2.36 h | half-life [5]: 0.5 ± 0.493 h | Cmax (both sexes, Sprague Dawley, rat, plasma, po, 21 mg/kg, read-out: Cmax): 0.0305 ± 0.0163 µg/mL | MRT last [5]: 1.18 ± 0.399 h | MRT inf [5]: 1.42 ± 0.621 h | AUC(0-inf) [6]: 0.0451 ± 0.0554 µg·h/mL | AUC(0-t) [6]: 0.0407 ± 0.0513 µg·h/mL | Tmax [6]: 1.18 ± 1.78 h | half-life [6]: 0.463 ± 0.598 h | Cmax (both sexes, Sprague Dawley, rat, plasma, po, 42 mg/kg, read-out: Cmax): 0.0526 ± 0.0788 µg/mL | MRT last [6]: 1.1 ± 0.381 h | MRT inf [6]: 1.24 ± 0.292 h | AUC(0-inf) [7]: 0.145 ± 0.0664 µg·h/mL | AUC(0-t) [7]: 0.14 ± 0.0663 µg·h/mL | Tmax [7]: 2.85 ± 4.06 h | half-life [7]: 0.738 ± 0.781 h | MRT last [7]: 2.01 ± 0.451 h | MRT inf [7]: 1.96 ± 1.08 h | Tmax (both sexes, Sprague Dawley, rat, plasma, po, rats, nonclinical p.o. administration studies overall): 1.77 ± 2.64 h | AUC(0-inf) [8]: 14.8 ± 7.28 µg·h/mL | AUC(0-t) [8]: 14.8 ± 7.29 µg·h/mL | Tmax [8]: 0.03 h | half-life [8]: 1.6 ± 0.972 h | Cmax [9]: 70.2 ± 60 µg/mL | AUC(0-inf) [10]: 0.0346 ± 0.0319 µg·h/mL | AUC(0-t) [10]: 0.0319 ± 0.0299 µg·h/mL | Tmax [10]: 1.05 ± 0.622 h | half-life [10]: 0.465 ± 0.344 h | Cmax (female, Sprague Dawley, rat, plasma, po, 10.5 mg/kg, read-out: Cmax): 0.0272 ± 0.0112 µg/mL | AUC(0-inf) [11]: 0.0519 ± 0.0157 µg·h/mL | AUC(0-t) [11]: 0.047 ± 0.0156 µg·h/mL | Tmax [11]: 1.55 ± 2.49 h | half-life [11]: 0.675 ± 0.57 h | Cmax (female, Sprague Dawley, rat, plasma, po, 21 mg/kg, read-out: Cmax): 0.0311 ± 0.016 µg/mL | AUC(0-inf) [12]: 0.0153 ± 0.0116 µg·h/mL | AUC(0-t) [12]: 0.0133 ± 0.0103 µg·h/mL | Tmax [12]: 1.7 ± 2.42 h | half-life [12]: 0.55 ± 0.813 h | Cmax (female, Sprague Dawley, rat, plasma, po, 42 mg/kg, read-out: Cmax): 0.0126 ± 0.00942 µg/mL | AUC(0-inf) [13]: 0.142 ± 0.0524 µg·h/mL | AUC(0-t) [13]: 0.137 ± 0.0507 µg·h/mL | Tmax [13]: 1.95 ± 3.39 h | half-life [13]: 0.85 ± 0.854 h | Cmax (female, Sprague Dawley, rat, plasma, po, 168 mg/kg, read-out: Cmax): 0.0958 ± 0.0544 µg/mL | AUC(0-inf) [14]: 21.4 ± 6.93 µg·h/mL | AUC(0-t) [14]: 21.3 ± 7.03 µg·h/mL | Tmax [14]: 0.03 h | half-life [14]: 1.65 ± 1.48 h | Cmax [15]: 106 ± 37.6 µg/mL | AUC(0-inf) [16]: 0.0369 ± 0.0302 µg·h/mL | AUC(0-t) [16]: 0.0335 ± 0.0288 µg·h/mL | Tmax [16]: 1.95 ± 3.4 h | half-life [16]: 0.19 ± 0.063 h | Cmax (male, Sprague Dawley, rat, plasma, po, 10.5 mg/kg, read-out: Cmax): 0.0361 ± 0.0149 µg/mL | AUC(0-inf) [17]: 0.0248 ± 0.018 µg·h/mL | AUC(0-t) [17]: 0.0214 ± 0.0165 µg·h/mL | Tmax [17]: 1.5 ± 2.52 h | half-life [17]: 0.325 ± 0.381 h | Cmax (male, Sprague Dawley, rat, plasma, po, 21 mg/kg, read-out: Cmax): 0.0299 ± 0.0185 µg/mL | AUC(0-inf) [18]: 0.0749 ± 0.0676 µg·h/mL | AUC(0-t) [18]: 0.0681 ± 0.0627 µg·h/mL | Tmax [18]: 0.65 ± 0.762 h | half-life [18]: 0.375 ± 0.354 h | Cmax (male, Sprague Dawley, rat, plasma, po, 42 mg/kg, read-out: Cmax): 0.0927 ± 0.0994 µg/mL | AUC(0-inf) [19]: 0.149 ± 0.0843 µg·h/mL | AUC(0-t) [19]: 0.144 ± 0.0803 µg·h/mL | Tmax [19]: 3.75 ± 4.85 h | half-life [19]: 0.625 ± 0.781 h | Cmax (male, Sprague Dawley, rat, plasma, po, 168 mg/kg, read-out: Cmax): 0.113 ± 0.102 µg/mL | Vd (naringin 10.5 mg kg^-1 p.o. single dose, rat): 174 ± 98.3 L/kg | Vd (naringin 21 mg kg^-1 p.o. single dose, rat): 322 ± 239 L/kg | Vd (naringin 42 mg kg^-1 p.o. single dose, rat): 586 ± 394 L/kg | Cmax [20]: 0.104 ± 0.0775 µg/mL | Vd [20]: 639 ± 657 L/kg

O=C1C[C@@H](c2ccc(O)cc2)Oc2cc(O)cc(O)c21 [naringenin, Naringenin]
AUC(0-inf) [1]: 2.39 ± 1.11 µg·h/mL | AUC(0-t) [1]: 2.36 ± 1.12 µg·h/mL | Tmax [1]: 0.04 ± 0.021 h | clearance [1]: 23.4 L/h/kg | half-life [1]: 2.45 ± 1.38 h | Cmax [2]: 3.98 ± 2.51 µg/mL | MRT last [1]: 3.36 ± 2.11 h | MRT inf [1]: 3.66 ± 2.14 h | Vd [3]: 88.3 ± 113 L/kg | half-life (both sexes, Sprague Dawley, rat, plasma, oral, naringenin in rats, studies overall): 2.31 ± 1.21 h | Tmax [8]: 0.043 ± 0.025 h | half-life [8]: 2.91 ± 1.87 h | Cmax [9]: 2.43 ± 1.55 µg/mL | AUC(0-inf) [14]: 3.01 ± 0.982 µg·h/mL | AUC(0-t) [14]: 2.99 ± 0.986 µg·h/mL | Cmax [15]: 5.54 ± 2.4 µg/mL | CL [21]: 19.6 ± 17.3 L/h/kg | Vd [21]: 93.4 ± 121 L/kg | lag-time in plasma (rats, after p.o. naringin): 0.701 ± 0.523 h | time for concentrations to increase to Cmax after the lag-time (rats, after p.o. naringin): 2.93 ± 2.01 h
